These results are taken from patent US4303640A, “Oil-in-water organophosphorus insecticidal emulsion” (priority 1979, dated 1981).

One series is described as follows: physchem. The settings on record: water.
Series [1] in a line: size of emulsified particles of the active ingredient (microscope). The class given is physicochemical. The settings on record: oil-in-water emulsion, as prepared. The method, then: A brief description of the method of producing the oil-in-water insecticidal emulsion of this invention will be given below. First, an insecticidally active liquid ingredient of the organophosphorus compound is added to a 2 to 20 wt% aqueous solution of polyvinyl alcohol or gum arabic, and a conventonal stirrer such as a T.K. Homomixer (a homogenizer manufactured by Tokushu Kika Kogyo Co., Ltd.) or a Shinagawa All-Purpose Mixer (a mixer manufactured by San-Ei-Seisakusho, Ltd.) is used to disperse the particles of the active ingredient (A.I.), generally at ambient temperature or, if necessary, at an elevated temperature (about 40° to 80° C.). The size of the emulsified particles of the active ingredient can be varied wihtin the range of from about 1 to 200μ depending upon the stirring force or the content of polyvinyl alcohol or gum arabic. A microscope is used to check the size of the emulsified particles of the active ingredient. Finally, for the purpose of preventing settling of the emulsified particles and improving the dispersion stability, an aqueous solution of a thickener is added to the emulsion in a suitable amount. The resulting oil-in-water insecticidal emulsion remains stable for an extended period. […]

≈ marks a conversion by molar mass, not a printed value.

As usually defined, the solubility is the dissolved amount per volume that the medium holds. A high value points to a readily soluble substance. Turning to `CCOC(=O)CC(SP(=S)(OC)OC)C(=O)OCC` (stereo not drawn) [Compound (2), O,O-dimethyl S-[1,2-di-(ethoxycarbonyl)ethyl]-phosphorodithioate], the concentration in solution in “physchem” (solubility) came to 145 µg/mL (≈ 439 µM).

Regarding `COP(=S)(OC)Oc1ccc(C#N)cc1` [Compound (3), O,O-dimethyl O-(4-cyanophenyl)phosphorothioate], in the series “physchem”, the concentration in solution (solubility) was 28 µg/mL (≈ 115 µM). Further, in series [1], the “Particle Size of emulsified active ingredient” value lay in the range of 1 to 50 μ.

Take `COP(=O)(Cc1cccc(C#N)c1)OC`: the “water-solubility at 10° C.” value was “ca. 6,000 ppm”. Further, the solubility in “physchem” is about 6000 µg/mL (≈ 26600 µM).

Regarding `CCOC(=O)C(SP(=S)(OC)OC)c1ccccc1` (stereo not drawn) [Compound (4), O,O-dimethyl S-[α-(ethoxycarbonyl)benzyl]-phosphorodithioate], the solubility in the series “physchem” is 4 µg/mL (≈ 12.5 µM).

For the molecule `COP(=S)(OC)Oc1ccc([N+](=O)[O-])c(C)c1` [Compound (1), O,O-dimethyl O-(3-methyl-4-nitrophenyl)phosphorothioate], the solubility in the series “physchem” came out at 5 µg/mL (≈ 18 µM). Moreover, the “Particle Size of emulsified active ingredient” value in series [1] fell in the range of 1 to 30 μ.
